Columns and labels:
[1] = tested on: HEL; test: Cytotoxicity against human HEL cells assessed as reduction in cell growth; type: functional
[2] = tested on: Vaccinia virus; test: Antiviral activity against Vaccinia virus infected in human HEL cells; type: functional, organism-based; conditions: Orthopoxvirus vaccinia
[3] = tested on: Vaccinia virus; test: Antiviral activity against Vaccinia virus Copenhagen infected in African green monkey Vero cells measured after 4 days by colorimetric assay; type: functional, organism-based; conditions: Orthopoxvirus vaccinia, 96 h
[4] = tested on: Ectromelia virus; test: Antiviral activity against ectromelia virus K-1 infected in Vero cells measured after 4 days by colorimetric assay; type: functional, organism-based; conditions: K-1, Vero, 96 h
[5] = tested on: Cowpox virus; test: Antiviral activity against Cowpox virus Grishak infected in African green monkey Vero cells measured after 4 days by colorimetric assay; type: functional, organism-based; conditions: 96 h
[6] = tested on: Vaccinia virus; test: Antiviral activity against Vaccinia virus infected in African green monkey CV-1 cells assessed as reduction in virus-induced cytopathic effect incubated for 5 days by colorimetric analysis; type: functional, organism-based; conditions: Orthopoxvirus vaccinia, CV-1, 120 h
[7] = tested on: Vaccinia virus; test: Antiviral activity against Vaccinia virus infected in African green monkey Vero cells assessed as reduction virus induced cytopathic effect incubated for 24 hrs by MTT assay; type: functional, organism-based; conditions: Orthopoxvirus vaccinia
[8] = tested on: Vaccinia virus; test: Antiviral activity against Vaccinia virus infected in African green monkey BSC-1 cells; type: functional, organism-based, Orthopoxvirus vaccinia
[9] = tested on: Vaccinia virus; test: Antiviral activity against Vaccinia virus VG9 infected in African green monkey BSC-1 cells; type: functional, organism-based, Orthopoxvirus vaccinia
[10] = tested on: Vaccinia virus; test: Antiviral activity against Vaccinia virus Copenhagen infected in human HFF cells assessed as assessed as reduction in virus-induced cytopathic effect incubated for 7 days by microscopic analysis; type: functional, organism-based; conditions: Orthopoxvirus vaccinia, 168 h
[11] = tested on: Cowpox virus; test: Antiviral activity against Cowpox virus infected in Vero cells measured after 4 days by colorimetric assay; type: functional, organism-based; conditions: 96 h
[12] = tested on: Vaccinia virus; test: Antiviral activity against Vaccinia virus IHD-J infected in BSC40 cells assessed as reduction in plaque formation measured after 72 hrs by crystal violet staining based analysis; type: functional, organism-based; conditions: Orthopoxvirus vaccinia, BSC-40, 72 h
[13] = Orthopoxvirus vaccinia, VG9, BSC-1

Question: What does the source list for `O=C1N(Nc2ccc(Cl)c(Cl)c2)C(=O)C23C4C=CC5C4C4C(C=CC42)C153`?
Answer: CC50 [1]: > 100000 nM; IC50 [2]: 480 nM

Question: For `CC1(C)[C@@H]2CC[C@@]1(C)[C@@H](NC(=O)c1ccc(Cl)cc1)C2`, which IC50 [3] is on record?
Answer: 240 nM

Question: What about the IC50 [4] of the same compound?
Answer: 600 nM

Question: What about the IC50 [5] of the same compound?
Answer: 2400 nM

Question: `C[C@@H]1O[C@@H](O[C@H]2C[C@@H](O)[C@]3(CO)[C@H]4[C@H](O)C[C@]5(C)[C@@H](C6=CC(=O)OC6)CC[C@]5(O)[C@@H]4CC[C@]3(O)C2)[C@H](O)[C@H](O)[C@H]1O` [OUABAIN] was tested. Which EC50 [6] did it give?
Answer: 250 nM

Question: Which IC50 [7] does the source give for `CC(=O)C1=C2C=CCCN2C(=O)NC1c1ccccc1` (configuration not stated) here?
Answer: 5900 nM

Question: For `CC(=O)O[C@H]1C[C@H](O[C@H]2[C@@H](O)C[C@H](O[C@H]3[C@@H](O)C[C@H](O[C@H]4CC[C@@]5(C)[C@H](CC[C@@H]6[C@@H]5C[C@@H](O)[C@]5(C)[C@@H](C7=CC(=O)OC7)CC[C@]65O)C4)O[C@@H]3C)O[C@@H]2C)O[C@H](C)[C@H]1O[C@@H]1O[C@H](CO)[C@@H](O)[C@H](O)[C@H]1O` [LANATOSIDE C], which EC50 [6] is on record?
Answer: 500 nM

Question: What does the source list for `O=C1N(Nc2ccc(Cl)c(C(F)(F)F)c2)C(=O)C23C4C=CC5C4C4C(C=CC42)C153`?
Answer: CC50 [1]: > 100000 nM; IC50 [2]: 800 nM

Question: `O=C(Nc1cccc(C(F)(F)F)c1)C(=O)NN1C(=O)C2C3C=CC(C4CC34)C2C1=O` (configuration not stated) was tested. Which IC50 [3] did it give?
Answer: 1.3 µg/mL

Question: Which IC50 [3] does the source give for `O=C(NN1C(=O)C2C3C=CC(C4CC34)C2C1=O)c1ccc(O)c([N+](=O)[O-])c1` (configuration not stated) here?
Answer: 0.38 µg/mL

Question: Which EC50 ([8]; Orthopoxvirus vaccinia, BSC-1) does the source give for `CN(Cc1cnc2nc(N)nc(N)c2n1)c1ccc(C(=O)N[C@@H](CCC(=O)O)C(=O)O)cc1` [METHOTREXATE] here?
Answer: 2200 nM

Question: And the EC50 [9, 13]?
Answer: 6100 nM

Question: Which EC50 [10] does the source give for `Fc1ccc(Nc2c(-c3ccccn3)nc3ccc(Cl)cn23)cc1` here?
Answer: 6500 nM

Question: Which EC50 ([8]; bsc-1) does the source give for RAUWOLFIA SERPENTINA here?
Answer: 9200 nM

Question: What about the EC50 ([9]; bsc-1) of the same compound?
Answer: 9800 nM

Question: With `CC[C@H]1CN2CCc3cc(OC)c(OC)cc3[C@@H]2C[C@@H]1C[C@H]1NCCc2cc(OC)c(OC)cc21` [EMETINE] as the compound, how does the EC50 [6] read?
Answer: 250 nM

Question: With `C[C@@H]1C[C@@H]([C@H](O)CC2CC(=O)NC(=O)C2)C(=O)[C@@H](C)C1` [CYCLOHEXIMIDE] as the compound, how does the EC50 [6] read?
Answer: 2000 nM

Question: For `CC[C@H]1CN2CCc3cc(OC)c(OC)cc3[C@@H]2CC1C[C@H]1NCCc2cc(O)c(OC)cc21` (some centres not stated), which EC50 [6] is on record?
Answer: 125 nM

Question: With `CC1(C)/C(=N\NC(=O)c2ccc(Cl)cc2)[C@]2(C)CC[C@H]1C2` as the compound, how does the IC50 [3] read?
Answer: 900 nM

Question: And the IC50 [4]?
Answer: 8000 nM

Question: And the IC50 [5]?
Answer: 4900 nM

Question: What does the source list for `CC1(C)[C@@H]2CC[C@@]1(C)[C@@H](NC(=O)c1ccc(C(F)(F)F)cc1)C2`?
Answer: IC50 [3]: 600 nM; IC50 [4]: 6900 nM; IC50 [5]: 6100 nM

Question: Which CC50 [1] does the source give for `Cc1cc(NN2C(=O)C34C5C=CC6C5C5C3C=CC5C64C2=O)ccc1[N+](=O)[O-]` here?
Answer: > 100000 nM

Question: What about the IC50 [2] of the same compound?
Answer: 3000 nM

Question: How did the EC50 [11] turn out when `Nc1ncnc2c1ncn2COC(CO)CO` was run?
Answer: 3500 nM

Question: Which EC50 ([8]; Orthopoxvirus vaccinia, BSC-1) does the source give for `COc1ccc(/C=C/C(=O)Nc2ccccc2C(=O)O)cc1OC` [TRANILAST] here?
Answer: 900 nM

Question: And the EC50 [9, 13]?
Answer: 800 nM

Question: With `CCCCCCCCCCOc1ccc(C(=O)NN2C(=O)C3C4C=CC(C5CC45)C3C2=O)cc1` (configuration not stated) as the compound, how does the IC50 [3] read?
Answer: 1.7 µg/mL

Question: How did the IC50 [3] turn out when `CC1(C)[C@@H]2CC[C@@]1(C)/C(=N/NC(=O)C1CCC(F)(F)CC1)C2` was run?
Answer: 1800 nM

Question: And the IC50 [4]?
Answer: 7800 nM

Question: And the IC50 [5]?
Answer: 8300 nM

Question: How did the EC50 [11] turn out when `Nc1ccn(C[C@@H]2COP(=O)(O)CO2)c(=O)n1` was run?
Answer: 48300 nM

Question: What about the EC50 [7] of the same compound?
Answer: 50600 nM

Question: With `O=C1c2ccccc2-c2onc3c2C1C(NC1CCCCC1)C=C3NCCO` (configuration not stated) as the compound, how does the EC50 [10] read?
Answer: 8400 nM

Question: With `Oc1ccc(NCc2ccccc2OCc2ccccc2)cc1` as the compound, how does the EC50 [10] read?
Answer: 7100 nM

Question: Which results are given for `CC1(C)[C@@H]2CC[C@@]1(C)[C@@H](NC(=O)c1ccc([N+](=O)[O-])cc1)C2`?
Answer: IC50 [3]: 30 nM; IC50 [4]: 410 nM; IC50 [5]: 1400 nM

Question: `Cc1cccc(C)c1NC(=O)C(=O)NN1C(=O)C2C3C=CC(C4CC34)C2C1=O` (configuration not stated) was tested. Which IC50 [3] did it give?
Answer: 1.28 µg/mL

Question: With `CC1(C)[C@@H]2CC[C@@]1(C)[C@H](NC(=O)c1ccc(Cl)cc1)C2` as the compound, how does the IC50 [3] read?
Answer: 600 nM

Question: And the IC50 [4]?
Answer: 3300 nM

Question: What about the IC50 [5] of the same compound?
Answer: 9200 nM

Question: For `O=C1N(Nc2ccc(C(F)(F)F)cc2)C(=O)C23C4C=CC5C4C4C(C=CC42)C153`, which CC50 [1] is on record?
Answer: > 100000 nM

Question: What about the IC50 [2] of the same compound?
Answer: 1200 nM

Question: Which EC50 [7] does the source give for `CCCCCCCCCCCCCCCCCCOCCOP1(=O)COCC(Cn2ccc(N)nc2=O)O1` (configuration not stated) here?
Answer: 1100 nM

Question: For `CCC(=O)N1CC(=O)Nc2ccc(Br)cc2C1c1ccccc1` (configuration not stated), which EC50 [12] is on record?
Answer: 3000 nM

Question: Which EC50 ([8]; Orthopoxvirus vaccinia, BSC-1) does the source give for `N#CC1(c2ccc(NC(=O)c3cccnc3NCc3ccncc3)cc2)CCCC1` [RIVOCERANIB] here?
Answer: 2500 nM

Question: And the EC50 [9, 13]?
Answer: 2700 nM

Question: Which results are given for `Cc1cc(C2CCCCC2)n(O)c(=O)c1` [CICLOPIROX]?
Answer: EC50 ([8]; Orthopoxvirus vaccinia, BSC-1): 5800 nM; EC50 [9, 13]: 6900 nM

Question: Which EC50 [7] does the source give for `CCCCCCCCCCCCCCCCCCOCCOP(=O)(O)CO[C@H](CO)Cn1ccc(N)nc1=O` here?
Answer: 200 nM

Question: Which results are given for `CCOC(=O)c1c(CSc2ccccc2)n(C)c2cc(Br)c(O)c(CN(C)C)c12` [UMIFENOVIR]?
Answer: EC50 ([8]; Orthopoxvirus vaccinia, BSC-1): 6600 nM; EC50 [9, 13]: 9700 nM

Source: ChEMBL document CHEMBL5346934 (J Med Chem, 2023)
